# Laboratory results reported in ChEMBL document CHEMBL1201862, “PubChem BioAssay data set” (2004).
# Active and inactive are the calls of the source.
# Key:
# [1] = target: T1, Tyrosine-protein phosphatase non-receptor type 7 (Homo sapiens, UniProt P35236); test: Dose Response confirmation of compounds that inhibit HePTP. [Related pubchem assays (depositor defined):AID1059, AID1661, AID2085]; type: functional
# T1 sequence (P35236 whole entry): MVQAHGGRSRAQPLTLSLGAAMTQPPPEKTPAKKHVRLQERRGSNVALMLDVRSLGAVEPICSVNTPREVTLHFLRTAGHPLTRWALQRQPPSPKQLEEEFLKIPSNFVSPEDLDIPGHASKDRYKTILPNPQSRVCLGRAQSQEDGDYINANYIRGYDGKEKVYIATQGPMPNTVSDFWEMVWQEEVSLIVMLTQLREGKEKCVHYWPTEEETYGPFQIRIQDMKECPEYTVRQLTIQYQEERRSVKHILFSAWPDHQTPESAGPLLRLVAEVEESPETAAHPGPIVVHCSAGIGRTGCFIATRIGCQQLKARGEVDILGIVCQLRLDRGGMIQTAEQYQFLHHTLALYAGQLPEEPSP
# [2] = target: T2, Dual specificity protein phosphatase 3 (Homo sapiens, UniProt P51452); test: Dose Response Confirmation of compounds that inhibit VHR1 in Fluorescent Assay. [Related pubchem assays (depositor defined):AID1661, AID1878]; type: functional
# Cytochrome P450 2C19 = Cytochrome P450 2C19 (Homo sapiens, UniProt P33261); test: Cytochrome panel assay with activity outcomes. Panel member name: p450-cyp2c19 Compounds with AC50 equal or less than 10 uM are considered active; type: functional; settings: read-out: AC50
# [3] = target: T2, Dual specificity protein phosphatase 3; test: SAR VHR1 Fluorescent Assay for In Vitro dose response studies Set 3. [Related pubchem assays (depositor defined):AID1654, AID1661, AID1878]; type: functional
# Cytochrome P450 1A2 = target: T3, Cytochrome P450 1A2 (Homo sapiens, UniProt P05177);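 also: PubChem cytochrome P450 panel assay, CYP1A2 panel member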
# T3 sequence (P05177 whole entry): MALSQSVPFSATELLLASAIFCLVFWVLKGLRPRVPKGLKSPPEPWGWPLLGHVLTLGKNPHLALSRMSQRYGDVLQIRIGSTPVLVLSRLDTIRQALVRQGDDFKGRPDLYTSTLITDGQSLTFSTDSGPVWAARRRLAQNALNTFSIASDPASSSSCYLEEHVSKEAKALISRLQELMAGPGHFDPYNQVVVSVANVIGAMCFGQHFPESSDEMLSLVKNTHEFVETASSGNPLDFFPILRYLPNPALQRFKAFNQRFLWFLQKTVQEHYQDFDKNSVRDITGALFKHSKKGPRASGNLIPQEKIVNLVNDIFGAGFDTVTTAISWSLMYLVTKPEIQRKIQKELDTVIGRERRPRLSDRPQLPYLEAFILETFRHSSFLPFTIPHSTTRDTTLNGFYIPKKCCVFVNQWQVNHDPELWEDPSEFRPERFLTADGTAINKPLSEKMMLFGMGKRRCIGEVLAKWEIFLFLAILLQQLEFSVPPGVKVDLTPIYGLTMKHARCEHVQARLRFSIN
# Cytochrome P450 3A4 = Cytochrome P450 3A4 (Homo sapiens, UniProt P08684);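 also: CYP3A4 tested as one member of a cytochrome P450 panel screen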
# Cytochrome P450 2C9 = Cytochrome P450 2C9 (Homo sapiens, UniProt P11712)
# [4] = inhibitors of intracellular T. cruzi replication, confirmation, NIH3T3 host cells, beta-gal luminescence (AID 2044); type: functional, cell-based;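 also: intracellular parasites grown in NIH/3T3 mouse fibroblasts as host cells; luminescent beta-galactosidase reporter signal from transgenic T. cruzi replicating inside host cells; inhibitors lower the luminescence signal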
# [5] = cytotoxicity toward NIH3T3 fibroblasts, dose response, counter-screen, cell-based, ATP luminescence, mouse fibroblasts (AID 2010); type: functional;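 also: cells exposed to compound for about 90 hours before reading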
# [6] = THP-1 cell cytotoxicity, dose response, cytotoxicity control for non-replicating M. tuberculosis project (AID 489025); type: functional
# [7] = HepG2 cell cytotoxicity, dose response, cytotoxicity control for non-replicating M. tuberculosis project (AID 489018); type: functional; settings: Mycobacterium tuberculosis
# [8] = Vero E6 cell cytotoxicity, dose response, cytotoxicity control for non-replicating M. tuberculosis project, secondary assay (AID 492998); type: functional, VeroE6; settings: Vero C1008
# cells = type: functional
# Vero = test: cells; type: functional; settings: Chlorocebus sabaeus
# [9] = target: T4, Tyrosine-protein phosphatase non-receptor type 22 (Homo sapiens, UniProt Q9Y2R2); test: SAR LYP1 Fluorescent Assay using pCAP substrate for In Vitro dose response studies - Set 2. [Related pubchem assays (depositor defined):AID1779, AID1784, AID2135, AID449727]; type: functional
# T4 sequence (Q9Y2R2 whole entry): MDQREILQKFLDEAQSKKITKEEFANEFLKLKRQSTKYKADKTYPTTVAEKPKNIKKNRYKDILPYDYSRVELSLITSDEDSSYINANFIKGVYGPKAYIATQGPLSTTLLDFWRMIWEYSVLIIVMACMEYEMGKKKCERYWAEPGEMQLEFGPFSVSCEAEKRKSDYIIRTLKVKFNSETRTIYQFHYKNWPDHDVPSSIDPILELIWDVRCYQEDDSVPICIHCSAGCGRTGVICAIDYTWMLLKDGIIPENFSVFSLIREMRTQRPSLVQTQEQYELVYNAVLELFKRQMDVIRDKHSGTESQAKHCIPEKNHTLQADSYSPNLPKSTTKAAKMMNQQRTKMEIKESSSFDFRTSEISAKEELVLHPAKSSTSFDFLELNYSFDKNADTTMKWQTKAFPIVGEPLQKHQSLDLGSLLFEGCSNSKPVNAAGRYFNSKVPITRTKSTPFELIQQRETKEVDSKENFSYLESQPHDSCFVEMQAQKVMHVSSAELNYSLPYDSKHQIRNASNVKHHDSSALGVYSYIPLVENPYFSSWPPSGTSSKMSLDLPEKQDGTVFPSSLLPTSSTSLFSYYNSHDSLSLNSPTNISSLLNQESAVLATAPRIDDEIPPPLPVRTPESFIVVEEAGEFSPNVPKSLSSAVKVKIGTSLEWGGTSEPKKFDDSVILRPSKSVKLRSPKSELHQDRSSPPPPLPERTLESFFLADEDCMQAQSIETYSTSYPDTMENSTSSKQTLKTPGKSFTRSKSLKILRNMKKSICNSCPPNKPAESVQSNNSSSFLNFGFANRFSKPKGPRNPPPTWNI
# [10] = target: Tyrosine-protein phosphatase non-receptor type 12 (Homo sapiens, UniProt Q05209); test: SAR Selectivity Analysis of small molecule inhibitors of PEST using pCAP in a fluorescence assay. [Related pubchem assays (depositor defined):AID1779, AID1784, AID2135]; type: functional
# [11] = target: T4, Tyrosine-protein phosphatase non-receptor type 22; test: SAR LYP1 Fluorescent Assay using OMFP substrate for In Vitro dose response studies - Set 3. [Related pubchem assays (depositor defined):AID1779, AID1784, AID2140, AID2686]; type: functional
# [12] = target: T1, Tyrosine-protein phosphatase non-receptor type 7; test: HePTP (PTPN7) phosphatase inhibitor potency, SAR follow-up, biochemical, set 2 (AID 449736); type: functional
# [13] = target: T4, Tyrosine-protein phosphatase non-receptor type 22; test: LYP (PTPN22) phosphatase inhibitor potency, SAR follow-up, biochemical, pCAP fluorogenic substrate, fluorescence, set 3 (AID 449727); type: functional
# [14] = target: T4, Tyrosine-protein phosphatase non-receptor type 22; test: SAR LYP1 Fluorescent Assay using OMFP substrate for In Vitro dose response studies - Set 2. [Related pubchem assays (depositor defined):AID1779, AID1784, AID2140, AID449726, AID488869]; type: functional
# [15] = target: T5, Carboxy-terminal domain RNA polymerase II polypeptide A small phosphatase 1 (Homo sapiens, UniProt Q9GZU7); test: inhibitors of CTDSP1, concentration-response testing, biochemical assay, absorbance-based, actives from ultra-high-throughput screening (AID 540297); type: functional
# T5 sequence (Q9GZU7 whole entry): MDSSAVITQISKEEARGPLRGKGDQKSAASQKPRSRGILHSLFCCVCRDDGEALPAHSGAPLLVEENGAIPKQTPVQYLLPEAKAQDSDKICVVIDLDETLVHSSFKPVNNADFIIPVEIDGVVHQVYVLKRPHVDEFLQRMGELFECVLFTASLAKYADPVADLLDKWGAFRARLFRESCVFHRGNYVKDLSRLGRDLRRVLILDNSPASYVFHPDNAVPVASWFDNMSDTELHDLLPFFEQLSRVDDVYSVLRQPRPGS
# J774.A1 = test: Confirmation of image-based Screening Assay for Inhibitors of Phagocytosis. [Related pubchem assays (depositor defined):AID1029, AID1643]; type: functional, cell-based; settings: Mus musculus
# [16] = target: G-protein coupled receptor 55 (Homo sapiens, UniProt Q9Y2T6); test: GPR55 agonists via beta-arrestin recruitment, primary screen, imaging, U2OS cells, beta-arrestin-GFP redistribution (AID 1961); type: functional
# Chain of G-protein coupled receptor 55 (Q9Y2T6 whole entry): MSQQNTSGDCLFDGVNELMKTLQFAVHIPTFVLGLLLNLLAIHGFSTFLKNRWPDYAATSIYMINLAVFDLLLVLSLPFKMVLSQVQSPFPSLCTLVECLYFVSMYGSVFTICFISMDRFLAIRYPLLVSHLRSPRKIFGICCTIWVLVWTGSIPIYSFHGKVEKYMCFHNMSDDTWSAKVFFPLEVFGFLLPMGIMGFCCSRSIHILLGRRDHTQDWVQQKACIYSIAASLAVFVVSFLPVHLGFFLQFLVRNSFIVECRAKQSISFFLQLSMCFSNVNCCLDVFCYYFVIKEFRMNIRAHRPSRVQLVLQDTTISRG
# T2 sequence (P51452 whole entry): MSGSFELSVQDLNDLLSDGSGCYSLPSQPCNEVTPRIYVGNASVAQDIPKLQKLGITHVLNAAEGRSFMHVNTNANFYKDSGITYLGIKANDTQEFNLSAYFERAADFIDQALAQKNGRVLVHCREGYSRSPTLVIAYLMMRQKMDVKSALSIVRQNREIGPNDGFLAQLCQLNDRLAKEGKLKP
# Chain of Tyrosine-protein phosphatase non-receptor type 12 (Q05209 whole entry): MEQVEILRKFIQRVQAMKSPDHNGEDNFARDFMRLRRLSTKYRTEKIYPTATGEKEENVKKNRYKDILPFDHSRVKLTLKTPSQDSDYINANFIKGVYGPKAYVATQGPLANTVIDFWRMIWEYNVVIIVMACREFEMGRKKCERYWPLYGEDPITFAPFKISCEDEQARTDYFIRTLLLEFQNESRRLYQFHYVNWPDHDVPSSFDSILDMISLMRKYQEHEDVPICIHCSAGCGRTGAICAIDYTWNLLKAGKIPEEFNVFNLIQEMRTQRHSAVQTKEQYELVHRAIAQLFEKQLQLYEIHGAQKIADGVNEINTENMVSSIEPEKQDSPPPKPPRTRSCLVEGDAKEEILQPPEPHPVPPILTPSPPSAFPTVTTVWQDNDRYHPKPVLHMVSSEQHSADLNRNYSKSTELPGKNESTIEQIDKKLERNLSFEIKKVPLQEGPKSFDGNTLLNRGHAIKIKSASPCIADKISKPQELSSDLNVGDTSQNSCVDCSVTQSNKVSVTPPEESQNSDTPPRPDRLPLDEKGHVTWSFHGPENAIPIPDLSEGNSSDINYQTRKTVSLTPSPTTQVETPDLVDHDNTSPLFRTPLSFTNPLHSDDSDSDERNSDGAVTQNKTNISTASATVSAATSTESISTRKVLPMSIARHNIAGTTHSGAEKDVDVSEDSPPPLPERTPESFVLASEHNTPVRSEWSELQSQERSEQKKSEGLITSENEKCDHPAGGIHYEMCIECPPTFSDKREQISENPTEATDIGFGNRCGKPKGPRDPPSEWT
# Chain of Cytochrome P450 2C19 (P33261 whole entry): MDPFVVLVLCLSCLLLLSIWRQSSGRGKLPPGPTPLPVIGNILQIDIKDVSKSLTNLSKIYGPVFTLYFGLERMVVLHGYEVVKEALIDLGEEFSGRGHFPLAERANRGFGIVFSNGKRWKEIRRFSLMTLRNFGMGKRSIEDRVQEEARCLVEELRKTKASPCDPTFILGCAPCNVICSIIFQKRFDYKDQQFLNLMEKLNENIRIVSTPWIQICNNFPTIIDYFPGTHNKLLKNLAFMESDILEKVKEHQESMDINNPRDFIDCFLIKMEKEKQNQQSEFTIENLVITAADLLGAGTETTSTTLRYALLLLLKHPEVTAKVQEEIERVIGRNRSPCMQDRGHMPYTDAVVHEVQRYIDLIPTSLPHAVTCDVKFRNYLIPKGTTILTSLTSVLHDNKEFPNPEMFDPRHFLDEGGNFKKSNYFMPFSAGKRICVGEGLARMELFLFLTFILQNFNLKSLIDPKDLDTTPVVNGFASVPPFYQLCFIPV
# Chain of Cytochrome P450 2C9 (P11712 whole entry): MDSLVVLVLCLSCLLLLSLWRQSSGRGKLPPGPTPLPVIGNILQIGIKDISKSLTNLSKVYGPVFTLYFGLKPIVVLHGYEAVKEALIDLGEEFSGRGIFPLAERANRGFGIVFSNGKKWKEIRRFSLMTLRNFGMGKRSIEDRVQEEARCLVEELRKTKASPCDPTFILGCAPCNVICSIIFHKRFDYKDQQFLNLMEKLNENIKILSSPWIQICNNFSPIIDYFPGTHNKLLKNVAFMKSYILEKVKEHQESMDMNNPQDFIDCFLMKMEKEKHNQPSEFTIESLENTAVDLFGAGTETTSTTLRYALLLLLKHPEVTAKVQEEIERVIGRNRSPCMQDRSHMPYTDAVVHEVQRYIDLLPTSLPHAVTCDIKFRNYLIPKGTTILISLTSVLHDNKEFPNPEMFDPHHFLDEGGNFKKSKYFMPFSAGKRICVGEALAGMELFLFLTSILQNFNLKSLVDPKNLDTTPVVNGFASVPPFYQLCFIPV
# Chain of Cytochrome P450 3A4 (P08684 whole entry): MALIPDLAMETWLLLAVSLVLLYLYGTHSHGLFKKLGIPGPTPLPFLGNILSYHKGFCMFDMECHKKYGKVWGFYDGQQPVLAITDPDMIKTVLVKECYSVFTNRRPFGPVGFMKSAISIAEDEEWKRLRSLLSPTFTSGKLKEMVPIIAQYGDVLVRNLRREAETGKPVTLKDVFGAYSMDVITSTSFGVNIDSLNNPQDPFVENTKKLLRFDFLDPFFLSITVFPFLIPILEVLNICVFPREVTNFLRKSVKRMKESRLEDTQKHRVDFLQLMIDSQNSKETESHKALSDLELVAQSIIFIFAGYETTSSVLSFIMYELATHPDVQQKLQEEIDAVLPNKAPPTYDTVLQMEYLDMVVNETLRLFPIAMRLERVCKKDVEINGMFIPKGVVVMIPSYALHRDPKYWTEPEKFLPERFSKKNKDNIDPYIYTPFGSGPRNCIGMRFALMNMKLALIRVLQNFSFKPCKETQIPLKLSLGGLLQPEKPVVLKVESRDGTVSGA
compound,measurement,setting,value
Cc1ccc(-c2nc3ccccc3s2)cc1NC(=O)c1cc(-n2cnnc2)ccc1Cl,IC50,[1],4.69 µM (active)
same,IC50,[2],2.21 µM (active)
same,AC50,Cytochrome P450 2C19,0.794 µM (inconclusive)
same,IC50,[3],3.69 µM (active)
same,AC50,Cytochrome P450 1A2,2.24 µM (inconclusive)
same,AC50,Cytochrome P450 3A4,0.891 µM (inconclusive)
same,AC50,Cytochrome P450 2C9,2.51 µM (inconclusive)
O=C(Nc1nc2ccccc2n1CCOc1ccc(Cl)cc1)c1ccco1,EC50,[4],2.02 µM (active)
same,EC50,[5],8.97 µM (active)
same,CC50,[6],34.4 µM (active)
same,CC50,[7],> 20 µM (active)
same,CC50,[8],9.25 µM (active)
same,IC50,cells,9.2 µM (active)
same,CC50,Vero,14 µM (active)
N#C/C(=C\c1ccc(OCc2ccc(Br)cc2)cc1)C(=O)Nc1cccc(C(=O)O)c1,IC50,[9],3.5 µM (active)
same,IC50,[10],0.714 µM (active)
same,IC50,[11],0.925 µM (active)
same,IC50,[12],0.343 µM (active)
same,IC50,[13],3.37 µM (active)
same,IC50,[14],1.94 µM (active)
same,IC50,[15],1.83 µM (active)
COc1ccccc1-c1nnc2sc(-c3cc4ccccc4o3)nn12,IC50,J774.A1,> 25 µM (inactive)
O=C(CSc1nc2ccccc2s1)N1c2ccccc2Sc2ccccc21,EC50,[16],12.7 µM (inactive)
